Reference: article PMC11995724, “Antibiotic target discovery by integrated phenotypic and activity-based profiling of electrophilic fragments” (Cell chemical biology, 2025)

Experiment: in vitro
Conditions: human, hek293t cells

Structure (SMILES)	viability at 48 h, 25 µM [%]
C=CC(=O)NCc1cc(C(F)(F)F)on1 [3-F20, N-{[5-(trifluoromethyl)-1,2-oxazol-3-yl]methyl}prop-2-enamide]	84.8
C=CC(=O)NCCN1CCn2nccc2C1 [3-F21, N-(2-{4H,5H,6H,7H-pyrazolo[1,5-a]pyrazin-5-yl}ethyl)prop-2-enamide]	72.8
C=CC(=O)N1CCN(Cc2cc(=O)n3ccsc3n2)CC1 [3-F22, 7-{[4-(prop-2-enoyl)piperazin-1-yl]methyl}-5H-[1,3]thiazolo[3,2-a]pyrimidin-5-one]	90.5
C=CC(=O)N1C2C=C(c3nccn3C)CC1CC2 (stereo not shown) [3-G03, 1-[3-(1-methyl-1H-imidazol-2-yl)-8-azabicyclo[3.2.1]oct-2-en-8-yl]prop-2-en-1-one]	52.5
C=CC(=O)N(C)CC(=O)Nc1ccc(C)c(S(=O)(=O)N(C)C)c1 [3-G04, N-({[3-(dimethylsulfamoyl)-4-methylphenyl]carbamoyl}methyl)-N-methylprop-2-enamide]	78.3
C=CC(=O)N(C)c1ccc(C#N)c(Cl)c1 [3-G05, N-(3-chloro-4-cyanophenyl)-N-methylprop-2-enamide]	0.69
C=CC(=O)NC1CCN(c2nnnn2C)CC1 [3-G06, N-[1-(1-methyl-1H-1,2,3,4-tetrazol-5-yl)piperidin-4-yl]prop-2-enamide]	79.8
C=CC(=O)N(CC)CC(=O)N1CCNC(=O)C1c1cccs1 (stereo not shown) [3-G07, N-ethyl-N-{2-oxo-2-[3-oxo-2-(thiophen-2-yl)piperazin-1-yl]ethyl}prop-2-enamide]	40
C=CC(=O)Nc1ccnn1CC1CC1 [3-G09, N-[1-(cyclopropylmethyl)-1H-pyrazol-5-yl]prop-2-enamide]	41.5
C=CC(=O)N1CCCN(S(=O)(=O)c2ccc(OC)cc2)CC1 [3-G10, 1-[4-(4-methoxybenzenesulfonyl)-1,4-diazepan-1-yl]prop-2-en-1-one]	96.8
C=CC(=O)N1CCN(Cc2nc(C(C)C)no2)CC1 [3-G11, 1-(4-{[3-(propan-2-yl)-1,2,4-oxadiazol-5-yl]methyl}piperazin-1-yl)prop-2-en-1-one]	55.2
C=CC(=O)N1CCCC1c1cc(C)no1 (stereo not shown) [3-G12, 1-[2-(3-methyl-1,2-oxazol-5-yl)pyrrolidin-1-yl]prop-2-en-1-one]	91.7
C=CC(=O)N1CCC(C(=O)NC(C)c2cccc(C(F)(F)F)c2)CC1 (stereo not shown) [3-G13, 1-(prop-2-enoyl)-N-{1-[3-(trifluoromethyl)phenyl]ethyl}piperidine-4-carboxamide]	40.6
C=CC(=O)Nc1cccc(OC(C)(C)C)c1 [3-G14, N-[3-(tert-butoxy)phenyl]prop-2-enamide]	85.8
C=CC(=O)N1CCCC(NS(=O)(=O)c2cccc(F)c2)C1 (stereo not shown) [3-G15, 3-fluoro-N-[1-(prop-2-enoyl)piperidin-3-yl]benzene-1-sulfonamide]	58
C=CC(=O)NCC1=NOCC1 [3-G16, N-[(4,5-dihydro-1,2-oxazol-3-yl)methyl]prop-2-enamide]	104
C=CC(=O)NCc1ccc(C(=O)N2CCN(C(C)=O)CC2)cc1 [3-G17, N-{[4-(4-acetylpiperazine-1-carbonyl)phenyl]methyl}prop-2-enamide]	32.9
C=CC(=O)NCCC(=O)N1CCSC(C)(C)C1 [3-G18, N-[3-(2,2-dimethylthiomorpholin-4-yl)-3-oxopropyl]prop-2-enamide]	101
C=CC(=O)NCCC(=O)N1CCC(C)(C)S(=O)(=O)CC1 [3-G19, N-[3-(7,7-dimethyl-1,1-dioxo-1lambda6,4-thiazepan-4-yl)-3-oxopropyl]prop-2-enamide]	41.2

Structure (SMILES)	viability at 48 h, 25 µM [%]
C=CC(=O)NCC1CCN(Cc2ccccc2)CC1C (stereo not shown) [3-G20, N-[(1-benzyl-3-methylpiperidin-4-yl)methyl]prop-2-enamide]	94.1
C=CC(=O)N1CCCC(CNS(=O)(=O)C2CC2)C1 (stereo not shown) [3-G21, N-{[1-(prop-2-enoyl)piperidin-3-yl]methyl}cyclopropanesulfonamide]	50.6
C=CC(=O)NCCc1nnc(C)s1 [3-G22, N-[2-(5-methyl-1,3,4-thiadiazol-2-yl)ethyl]prop-2-enamide]	78.3
C=CC(=O)N1CCC(C(=O)NCc2cc(C)c[nH]c2=O)CC1 [3-H03, N-[(5-methyl-2-oxo-1,2-dihydropyridin-3-yl)methyl]-1-(prop-2-enoyl)piperidine-4-carboxamide]	81.3
C=CC(=O)N1CCC(C(=O)OCC)(S(C)(=O)=O)CC1 [3-H04, ethyl 4-methanesulfonyl-1-(prop-2-enoyl)piperidine-4-carboxylate]	93.3
C=CC(=O)N1CCC(C(=O)NCc2ncccc2OC)CC1 [3-H05, N-[(3-methoxypyridin-2-yl)methyl]-1-(prop-2-enoyl)piperidine-4-carboxamide]	73.5
C=CC(=O)Nc1ccc(N(C)S(=O)(=O)CC)cc1 [3-H06, N-[4-(N-methylethanesulfonamido)phenyl]prop-2-enamide]	87.8
C=CC(=O)N1CCC(C(=O)NC2(CO)CCSCC2)CC1 [3-H07, N-[4-(hydroxymethyl)thian-4-yl]-1-(prop-2-enoyl)piperidine-4-carboxamide]	67.5
C=CC(=O)N(C)CC(=O)Nc1ccc(N2C[C@@H](C)O[C@@H](C)C2)cc1 [3-H08, N-[({4-[(2R,6S)-2,6-dimethylmorpholin-4-yl]phenyl}carbamoyl)methyl]-N-methylprop-2-enamide]	94.9
C=CC(=O)N1CCOC(c2nccs2)C1 (stereo not shown) [3-H09, 1-[2-(1,3-thiazol-2-yl)morpholin-4-yl]prop-2-en-1-one]	69.4
C=CC(=O)Nc1ccccc1-n1nccn1 [3-H10, N-[2-(2H-1,2,3-triazol-2-yl)phenyl]prop-2-enamide]	73.2
C=CC(=O)NCc1ncnn1-c1ccccc1 [3-H11, N-[(1-phenyl-1H-1,2,4-triazol-5-yl)methyl]prop-2-enamide]	63.1
C=CC(=O)N1CCC(C(=O)NC2(Cc3ccccc3)CCCC2)CC1 [3-H12, N-(1-benzylcyclopentyl)-1-(prop-2-enoyl)piperidine-4-carboxamide]	83.4
C=CC(=O)NC1(c2nc(C3CC3)cc(=O)[nH]2)CCCCC1 [3-H13, N-[1-(4-cyclopropyl-6-oxo-1,6-dihydropyrimidin-2-yl)cyclohexyl]prop-2-enamide]	68.3
C=CC(=O)Nc1ccc2occc2c1 [3-H14, N-(1-benzofuran-5-yl)prop-2-enamide]	99.9
C=CC(=O)NCc1noc(-c2cccs2)n1 [3-H15, N-{[5-(thiophen-2-yl)-1,2,4-oxadiazol-3-yl]methyl}prop-2-enamide]	93.9
C=CC(=O)NCc1ccc(-n2ccc(C)n2)nc1 [3-H16, N-{[6-(3-methyl-1H-pyrazol-1-yl)pyridin-3-yl]methyl}prop-2-enamide]	99.7
C=CC(=O)Nc1ccccc1C(=O)N(C)C(C)C [3-H17, N-methyl-2-(prop-2-enamido)-N-(propan-2-yl)benzamide]	66.9
